From patent US9533983B2, “Antiplatelet agent” (Mitsubishi Tanabe Pharma Corporation, priority 2009, dated 2017)

How the values were obtained:
Assay type in all cases: cell-based
Settings in all cases: Cavia porcellus, guinea pig PRP
[1] = system: Collagen-Induced Platelet Aggregation; assay: Platelet aggregation inhibitory activity: collagen-induced platelet aggregation in platelet rich plasma
Procedure: (§1) A blood of a guinea pig was sampled by using a 1/10 volume of a 3.8% sodium citrate as a platelet aggregation inhibitor, and a platelet rich plasma (PRP) was separated by centrifuging the blood sample at 1100 rpm for 10 min. After fractionating the PRP in the upper layer, the lower layer was centrifuged at 3000 rpm for 10 min to fractionate the platelet poor plasma (PPP). To 100 μL of PRP, a 1 μL solution of each compound was added, and after still standing at 37° C. for 1 min, the mixture was stirred at 37° C. for 1 min by a stirrer. Then, 11 μL of collagen, ristocetin, or ADP was added thereto to induce the platelet aggregation. The platelet aggregation ability was measured by using the mCM hematolaser 313M (L-M-S Inc.). Based on the assumption that a light transmittance of PPP corresponds to a 100% coagulation value, an aggregation rate at each concentration of the compound was determined, then, an IC50 value was calculated therefrom.
[Platelet Aggregation Inhibitory Activities: Collagen-Induced Platelet Aggregation]

[2] = system: Ristocetin-Induced Platelet Aggregation; assay: Platelet aggregation inhibitory activity: ristocetin-induced platelet aggregation in platelet rich plasma
Procedure: as §1
[Platelet Aggregation Inhibitory Activities: Ristocetin-Induced Platelet Aggregation]

[3] = system: ADP-Induced Platelet Aggregation; assay: Platelet aggregation inhibitory activity: ADP-induced platelet aggregation in platelet rich plasma
Procedure: as §1
[Platelet Aggregation Inhibitory Activities: ADP-Induced Platelet Aggregation]

Row | IC50 [1] [nM] | IC50 [2] [nM] | IC50 [3] [nM] | Structure (SMILES)
1 | 24 | 9 | > 10000 | COc1ccc(-n2c(-c3ccccn3)cc3cc(C(F)(F)F)cnc32)cn1 [Example 183, 1-(6-methoxypyridin-3-yl)-2-pyridin-2-yl-5-(trifluoromethyl)-1H-pyrrolo[2,3-b]pyridine]
2 | 78 | 43 | > 10000 | COc1ccc(-n2c(-c3ccc(F)cn3)nc3cc(OC(F)(F)F)ccc32)nn1 [Example 71, 2-(5-fluoropyridin-2-yl)-1-(6-methoxypyridazin-3-yl)-5-(trifluoromethoxy)-1H-benzimidazole]
3 | 163 | 163 | > 10000 | COc1ccc(-n2c(-c3cn(C)nn3)nc3cc(C(F)(F)F)cnc32)cn1 [Example 160, 3-(6-methoxypyridin-3-yl)-2-(1-methyl-1H-1,2,3-triazol-4-yl)-6-(trifluoromethyl)-3H-imidazo[4,5-b]pyridine]
4 | 120 | 80 | > 10000 | COc1ccc(-n2c(-c3cocn3)nc3cc(C(F)(F)F)ccc32)nn1 [Example 88, 1-(6-methoxypyridazin-3-yl)-2-(1,3-oxazol-4-yl)-5-(trifluoromethyl)-1H-benzimidazole]
5 | 60 | 27 | > 10000 | COc1ccc(-c2c(-c3ccc(F)cn3)nn3cc(C(F)(F)F)cnc23)cn1 [Example 192, 2-(5-fluoropyridin-2-yl)-3-(6-methoxypyridin-3-yl)-6-(trifluoromethyl)pyrazolo[1,5-a]pyrimidine]
6 | 54 | 41 | > 10000 | COc1ccc(-n2c(-c3ccn(C)n3)nc3cc(C(F)(F)F)ccc32)nn1 [Example 52, 1-(6-methoxypyridazin-3-yl)-2-(1-methyl-1H-pyrazol-3-yl)-5-(trifluoromethyl)-1H-benzimidazole]
7 | 17 | – | > 10000 | COc1ccc(-n2c(-c3ccc(F)cn3)cc3cc(C(F)(F)F)cnc32)cn1 [Example 184, 2-(5-fluoropyridin-2-yl)-1-(6-methoxypyridin-3-yl)-5-(trifluoromethyl)-1H-pyrrolo[2,3-b]pyridine]
8 | 116 | – | > 10000 | COc1ccc(-n2c(-c3ccccn3)cc3cc(C(F)(F)F)ccc32)cn1 [Example 182, 1-(6-methoxypyridin-3-yl)-2-pyridin-2-yl-5-(trifluoromethyl)-1H-indole]
9 | 70 | – | > 10000 | COc1ccc(-c2c3ccc(C(F)(F)F)cc3nn2-c2ccc(F)cn2)cn1 [Example 185, 2-(5-fluoropyridin-2-yl)-3-(6-methoxypyridin-3-yl)-6-(trifluoromethyl)-2H-indazole]
10 | 200 | – | > 10000 | COc1ccc(-n2c(-c3ccccn3)nc3cc(C(F)(F)F)ccc32)cn1 [Example 14, 1-(6-methoxypyridin-3-yl)-2-pyridin-2-yl-5-(trifluoromethyl)-1H-benzimidazole]
11 | 28 | 28 | – | COc1ccc(-n2c(-c3ccc(Cl)cn3)nc3cc(C(F)(F)F)cnc32)cn1 [Example 159, 2-(5-chloropyridin-2-yl)-3-(6-methoxypyridin-3-yl)-6-(trifluoromethyl)-3H-imidazo[4,5-b]pyridine]
12 | 78 | 66 | – | COc1ccc(-n2c(-c3ccccn3)nc3cc(OC(F)F)cnc32)cn1 [Example 146, 6-(difluoromethoxy)-3-(6-methoxypyridin-3-yl)-2-pyridin-2-yl-3H-imidazo[4,5-b]pyridine]
13 | 490 | 120 | – | COc1ccc(-n2c(-c3ccccc3)nc3cc(C(F)(F)F)ccc32)cn1 [Example 18, 1-(6-methoxypyridin-3-yl)-2-phenyl-5-(trifluoromethyl)-1H-benzimidazole]
14 | 55 | 63 | – | COc1ccc(-n2c(-c3ccccn3)nc3cc(OC(C)C(F)(F)F)cnc32)cn1 (stereo not shown) [Example 176, 3-(6-methoxypyridin-3-yl)-2-pyridin-2-yl-6-(2,2,2-trifluoro-1-methylethoxy)-3H-imidazo[4,5-b]pyridine]
